For eight compounds, IC50 and EC50 results are on record in US20260364080A1, “PYRAZOLO-PYRIMIDINONE COMPOUNDS FOR USE IN METHODS OF INHIBITING WEE1 A KINASE” (Acrivon Therapeutics, Inc., priority 2023, published 2026).

In experiment [1] the target is T1, recombinant human Wee1A kinase (Homo sapiens, UniProt P30291).
T1 construct: full length Wee1 kinase was expressed by baculovirus in insect cells; purchased Invitrogen PV3817; host or cells: insect cells (baculovirus)
The experiment is described as follows: Wee1A kinase binding assay (LanthaScreen Eu time-resolved FRET). Particulars: 30 nM tracer 178, 5 nM Wee1A kinase, 2 nM Eu-labeled antibody; 60 minutes at room temperature; read-out: Wee1A kinase Binding IC50. Summed up: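 Full-length, baculovirus-expressed GST-tagged Wee1A (5 nM) was mixed with 2 nM Eu-anti-GST antibody, 30 nM kinase tracer 178 and compound (1% DMSO). Buffer was 50 mM HEPES pH 7.5, 10 mM MgCl2, 1 mM EGTA, 0.01% Brij-35, incubated 60 min at room temperature. TR-FRET 665/615 nm emission ratios from duplicates were curve-fitted.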
In general terms: TR-FRET usually uses a lanthanide donor and a delayed reading to cut background.

Experiment [2] addresses T2, Myt1 kinase (CDK1 Thr14 phosphorylation in ACHN renal cell carcinoma cells) (Homo sapiens, UniProt Q99640).
T2 construct: pCDK1 Thr14 AlphaLISA read-out
T2 sequence (Q99640 1-499): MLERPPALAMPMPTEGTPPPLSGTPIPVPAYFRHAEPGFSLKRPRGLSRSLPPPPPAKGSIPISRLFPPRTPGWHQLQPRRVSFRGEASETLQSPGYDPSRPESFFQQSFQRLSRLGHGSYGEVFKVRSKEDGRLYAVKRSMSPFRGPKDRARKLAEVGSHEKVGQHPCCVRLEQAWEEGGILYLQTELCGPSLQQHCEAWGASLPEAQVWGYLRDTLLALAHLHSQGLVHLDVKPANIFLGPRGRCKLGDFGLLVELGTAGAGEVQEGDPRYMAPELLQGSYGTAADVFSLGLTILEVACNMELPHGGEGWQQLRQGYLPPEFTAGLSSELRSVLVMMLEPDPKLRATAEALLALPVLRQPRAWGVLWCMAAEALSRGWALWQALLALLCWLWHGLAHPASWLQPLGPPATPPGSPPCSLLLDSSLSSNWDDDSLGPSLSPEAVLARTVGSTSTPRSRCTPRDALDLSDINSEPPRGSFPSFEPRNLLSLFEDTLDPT
As to the kind of experiment: AlphaLISA assay, Myt1 kinase target engagement (phospho-CDK1 Thr14) in ACHN cells. In kind it is cell-based. The conditions noted are these: ACHN cells (marked *); 4 h treatment. An outline of the steps: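 Cells seeded at 10,000 (DAOY) or 20,000 (ACHN) per well, treated 24 h later for 4 h with compound at 7–5000 nM. Lysates analysed by AlphaLISA SureFire Ultra phospho-CDK1 (Thr14) with donor/acceptor beads; EC50 from dose-response curves.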
For orientation: Bead proximity is the source of the signal in Alpha formats.

For the next experiment, the system named is ACHN cells. As to the kind of experiment: Cell Titer Glo viability assay, ACHN cells. In kind it is cell-based. Particulars: Homo sapiens, 144 h, absolute EC50. Summed up: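 Cells grown in MEM with 10% FCS were seeded at 500 (A427), 400 (ACHN) or 250 (DAOY) per well and treated the next day with compound at 17 to 10 000 nM. Viability relative to untreated control was read at 144 h by CellTiter-Glo 2.0.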

For experiment [3], the target named is T3, Myt1 kinase (recombinant PMYT-1) (Homo sapiens, UniProt Q99640).
T3 construct: full length PMYT-1 was expressed by baculovirus in insect cells; purchased Invitrogen A30984; host or cells: insect cells (baculovirus)
T3 sequence (Q99640 1-499): T2 sequence (Q99640 1-499)
As to the kind of experiment: Myt1 kinase binding assay (LanthaScreen Eu Kinase Binding Assay). The conditions noted are these: 3 nM tracer 178, 2.5 nM PMYT-1, 1 nM Eu-labeled antibody; read-out: Myt1 kinase Binding IC50. An outline of the steps: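 Compound binding to Myt1 kinase was assessed using the LanthaScreen Eu Kinase Binding Assay. This europium-based binding format was applied to quantify how strongly each compound bound to the Myt1 enzyme, and the binding affinity was reported for each compound as an IC50 value.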

The target in experiment [4] is T4, Wee1A kinase (CDK1 Tyr15 phosphorylation in ACHN renal cell carcinoma cells) (Homo sapiens, UniProt P30291).
T4 construct: pCDK1 Tyr15 immunofluorescence read-out
The experiment is described as follows: High-content imaging of pCdk1 Y15, Wee1A kinase target engagement in ACHN cells. The experiment is classed as cell-based. Particulars: 4 h treatment, nuclear positivity for pCdk1 Y15 vs DMSO control, read-out: CDK1 Tyr15 Phosphorylation EC50. Summed up:
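EC50 values come from the per-well fraction of cells with nuclear pCdk1 Y15 staining, normalised to DMSO control, by automated immunofluorescence imaging. Cells were ACHN renal carcinoma, treated 4 h with compound at 7–5,000 nM or 0.3–200 nM.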

Some results are limits rather than exact numbers.

T1 sequence (P30291 whole entry): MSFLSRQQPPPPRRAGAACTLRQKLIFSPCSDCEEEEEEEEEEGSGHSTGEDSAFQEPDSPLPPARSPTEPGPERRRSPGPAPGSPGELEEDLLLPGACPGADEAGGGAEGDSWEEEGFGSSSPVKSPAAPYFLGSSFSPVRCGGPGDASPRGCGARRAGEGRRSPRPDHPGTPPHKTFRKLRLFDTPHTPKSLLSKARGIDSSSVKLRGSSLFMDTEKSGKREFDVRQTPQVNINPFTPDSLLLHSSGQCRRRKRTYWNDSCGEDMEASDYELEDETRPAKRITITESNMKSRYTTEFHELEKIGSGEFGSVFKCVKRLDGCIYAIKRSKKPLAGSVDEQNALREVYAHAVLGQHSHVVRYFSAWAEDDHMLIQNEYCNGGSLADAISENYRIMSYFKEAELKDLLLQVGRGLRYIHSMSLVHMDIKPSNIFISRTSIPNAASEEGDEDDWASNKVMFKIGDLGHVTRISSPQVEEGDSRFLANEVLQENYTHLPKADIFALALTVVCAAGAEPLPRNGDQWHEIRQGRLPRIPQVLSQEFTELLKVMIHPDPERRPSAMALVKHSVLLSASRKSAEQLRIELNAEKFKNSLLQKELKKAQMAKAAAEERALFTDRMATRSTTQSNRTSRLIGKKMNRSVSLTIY
T4 sequence (P30291 whole entry): as above

`C=CCn1c(=O)c2cnc(Nc3ccc(OCCF)cc3)nc2n1-c1ccnc(OC2CCN(C)CC2)n1` [Compound 388, 2-allyl-6-((4-(2-fluoroethoxy)phenyl)amino)-1-(2-((1-methylpiperidin-4-yl)oxy)pyrimidin-4-yl)-1,2-dihydro-3H-pyrazolo[3,4-d]pyrimidin-3-one]: the values for the IC50 in experiment [1] and in experiment [3] were under 0.01 µM and 0.02 to 0.1 µM, respectively. The EC50 (commonly the concentration that produces a half-maximal response) in experiment [2] is under 0.2 µM; with ACHN cells, at most 0.1 µM; in experiment [4], under 0.1 µM.
Turning to `C=CCn1c(=O)c2cnc(Nc3ccc4c(cnn4CCCF)c3)nc2n1-c1cccc(OC2CCN(C)CC2)n1` [Compound 387, 2-allyl-6-((1-(3-fluoropropyl)-1H-indazol-5-yl)amino)-1-(6-((1-methylpiperidin-4-yl)oxy)pyridin-2-yl)-1,2-dihydro-3H-pyrazolo[3,4-d]pyrimidin-3-one], the figures for the 50% inhibitory concentration (IC50) in experiment [1] and in experiment [3] were under 0.01 µM and 0.02 to 0.1 µM, respectively. For the same compound, the results for the EC50 (in experiment [2]; with ACHN cells; in experiment [4]) were under 0.2 µM, at most 0.1 µM and under 0.1 µM, respectively.
Consider `CN1CCC(Oc2cccc(-n3c4nc(Nc5ccc6c(ccn6C)c5)ncc4c(=O)n3C)n2)CC1` [Compound 360, 2-methyl-6-((1-methyl-1H-indol-5-yl)amino)-1-(6-((1-methylpiperidin-4-yl)oxy)pyridin-2-yl)-1,2-dihydro-3H-pyrazolo[3,4-d]pyrimidin-3-one], for which the results for the IC50 in experiment [1] and in experiment [3] were under 0.01 µM and 0.02 to 0.1 µM, respectively. Moreover, the figures for the EC50 (in experiment [2]; in the experiment on ACHN cells; in experiment [4]) were 0.5 to 1 µM, at most 0.1 µM and under 0.1 µM, respectively.
For the compound `C=CCn1c(=O)c2cnc(Nc3ccc4c(cnn4C)c3)nc2n1-c1cccc(OC2CCN(CCC)CC2)n1` [Compound 322, 2-allyl-6-(1-methyl-1H-indazol-5-ylamino)-1-[6-(1-propyl-4-piperidyloxy)-2-pyridyl]-1,2-dihydro-3H-1,2,5,7-tetraazainden-3-one], the concentration for half-maximal inhibition (IC50) – broadly, the concentration at which inhibition is half-maximal – is under 0.01 µM in experiment [1] and 0.02 to 0.1 µM in experiment [3]. The results for the EC50 (in experiment [2]; in the experiment with ACHN cells; in experiment [4]) were 0.2 to 0.5 µM, at most 0.1 µM and under 0.1 µM, respectively.
For `C=CCn1c(=O)c2cnc(Nc3ccc4c(cnn4C4CC4)c3)nc2n1-c1cccc(OC2CCN(C)CC2)n1` [Compound 386, 2-allyl-6-((1-cyclopropyl-1H-indazol-5-yl)amino)-1-(6-((1-methylpiperidin-4-yl)oxy)pyridin-2-yl)-1,2-dihydro-3H-pyrazolo[3,4-d]pyrimidin-3-one] the same measures were under 0.01 µM, under 0.02 µM, under 0.2 µM, at most 0.1 µM and under 0.1 µM.
`C=CCn1c(=O)c2cnc(Nc3ccc(N4CCOCC4)cc3)nc2n1-c1cccc(OC2CCN(C)CC2)n1` [Compound 278, 2-allyl-1-(6-((1-methylpiperidin-4-yl)oxy)pyridin-2-yl)-6-((4-morpholinophenyl)amino)-1,2-dihydro-3H-pyrazolo[3,4-d]pyrimidin-3-one]: the concentration for half-maximal inhibition (IC50) in experiment [1] is under 0.01 µM; in experiment [3], 0.02 to 0.1 µM. The figures for the EC50 (in experiment [2]; in the experiment on ACHN cells; in experiment [4]) were under 0.2 µM, at most 0.1 µM and under 0.1 µM, respectively.
On the same counts, the results for `C=CCn1c(=O)c2cnc(Nc3ccc4c(cnn4C)c3)nc2n1-c1cccc(OC2CCCN(C)CC2)n1` (single isomer, unassigned) [Compound 373] are under 0.01 µM, under 0.02 µM, 0.2 to 0.5 µM, at most 0.1 µM and under 0.1 µM.
For `C=CCn1c(=O)c2cnc(Nc3ccc4c(cnn4CCC)c3)nc2n1-c1cccc(OC2CCNCC2)n1` [Compound 390, 2-allyl-1-[6-(4-piperidyloxy)-2-pyridyl]-6-(1-propyl-1H-indazol-5-ylamino)-1,2-dihydro-3H-1,2,5,7-tetraazainden-3-one], the IC50 is under 0.01 µM in experiment [1] and under 0.02 µM in experiment [3]. Besides, the values for the EC50 (in experiment [2]; with ACHN cells; in experiment [4]) were under 0.2 µM, at most 0.1 µM and under 0.1 µM, respectively.
